Results on 25 compounds are retold here after ChEMBL document CHEMBL4765390, “Discovery of carboxyl-containing biaryl ureas as potent RORγt inverse agonists” (Eur J Med Chem, 2020).

Data set [1] is described as follows: Aqueous kinetic solubility of the compound at pH 7.4 PBS buffer at 100 uM incubated for 120 mins by LC-MS/MS analysis. Particulars: read-out: Kinetic_solubility. The format is physicochemical.
The target in data set [2] is T1, Nuclear receptor ROR-gamma (Homo sapiens, UniProt P51449).
T1 sequence (P51449 whole entry): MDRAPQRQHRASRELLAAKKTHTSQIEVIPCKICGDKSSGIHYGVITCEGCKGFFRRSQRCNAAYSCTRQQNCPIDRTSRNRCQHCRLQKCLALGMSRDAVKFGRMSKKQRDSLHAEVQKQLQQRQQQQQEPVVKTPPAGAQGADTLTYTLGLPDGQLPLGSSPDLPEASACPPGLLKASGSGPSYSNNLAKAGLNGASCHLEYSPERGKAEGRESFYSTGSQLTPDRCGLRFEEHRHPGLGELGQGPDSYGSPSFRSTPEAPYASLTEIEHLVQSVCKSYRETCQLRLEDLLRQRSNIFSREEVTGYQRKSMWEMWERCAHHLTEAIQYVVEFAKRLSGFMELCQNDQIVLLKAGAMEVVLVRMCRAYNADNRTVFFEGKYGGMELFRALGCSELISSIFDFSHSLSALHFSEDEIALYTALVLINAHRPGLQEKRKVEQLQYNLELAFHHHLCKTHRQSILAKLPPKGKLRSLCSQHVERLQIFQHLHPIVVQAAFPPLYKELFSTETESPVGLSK
The data set is described as follows: Inverse agonist activity at human RORgammat assessed as inhibition of N-terminal biotinylated co-activator SRC1 recruitment measured after 60 mins by FRET assay.

A short description of data set [3]: Cmax in CD-1 mouse at 1 mg/kg, iv administered as single dose measured after 24 hrs by LC-MS/MS analysis. Particulars: in vivo. In kind it is ADME, organism-based. More on the design: route intravenous, time 24 hrs, dose 1 mg/kg.
The nature of data set [4]: Clearance in CD-1 mouse at 1 mg/kg, iv administered as single dose measured after 24 hrs by LC-MS/MS analysis. In kind it is ADME, organism-based. Conditions: in vivo.
Data set [5] in a line: Cmax in CD-1 mouse at 5 mg/kg, po administered as single dose measured after 24 hrs by LC-MS/MS analysis. Set-up: route oral, time 24 hrs, dose 5 mg/kg. Particulars: in vivo. In kind it is ADME, organism-based.
The target of data set [6] is T2, Nuclear receptor ROR-beta (Homo sapiens, UniProt Q92753).
T2 sequence (Q92753 whole entry): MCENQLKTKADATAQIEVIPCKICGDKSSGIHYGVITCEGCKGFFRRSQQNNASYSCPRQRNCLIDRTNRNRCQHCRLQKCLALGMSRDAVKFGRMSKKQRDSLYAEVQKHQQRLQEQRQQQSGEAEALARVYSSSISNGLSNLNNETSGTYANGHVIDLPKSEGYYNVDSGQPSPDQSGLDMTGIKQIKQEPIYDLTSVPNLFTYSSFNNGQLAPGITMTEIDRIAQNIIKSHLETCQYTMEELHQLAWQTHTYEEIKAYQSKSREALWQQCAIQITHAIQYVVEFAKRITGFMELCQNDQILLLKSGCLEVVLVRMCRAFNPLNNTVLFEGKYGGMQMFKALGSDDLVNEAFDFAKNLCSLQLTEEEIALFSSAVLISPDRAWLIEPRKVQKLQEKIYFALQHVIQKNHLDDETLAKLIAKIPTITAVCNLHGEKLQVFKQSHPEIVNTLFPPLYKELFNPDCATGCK
The data set is described as follows: Inverse agonist activity at ROR-beta (unknown origin) expressed in HEK293 cells by Gal4-luciferase reporter assay. In kind it is cell-based.

Data set [7] is described as follows: Half life in CD-1 mouse at 1 mg/kg, iv administered as single dose measured after 24 hrs by LC-MS/MS analysis. The format is ADME, organism-based. Particulars: in vivo.
Data set [8] is described as follows: Oral bioavailability in CD-1 mouse at 5 mg/kg administered as single dose measured after 24 hrs by LC-MS/MS analysis. Particulars: in vivo. In kind it is ADME, organism-based.
Data set [9] is described as follows: Tmax in CD-1 mouse at 5 mg/kg, po administered as single dose measured after 24 hrs by LC-MS/MS analysis. The format is ADME, organism-based. Particulars: in vivo.
Data set [10] deals with T3, Nuclear receptor ROR-alpha (Homo sapiens, UniProt P35398).
T3 sequence (P35398 whole entry): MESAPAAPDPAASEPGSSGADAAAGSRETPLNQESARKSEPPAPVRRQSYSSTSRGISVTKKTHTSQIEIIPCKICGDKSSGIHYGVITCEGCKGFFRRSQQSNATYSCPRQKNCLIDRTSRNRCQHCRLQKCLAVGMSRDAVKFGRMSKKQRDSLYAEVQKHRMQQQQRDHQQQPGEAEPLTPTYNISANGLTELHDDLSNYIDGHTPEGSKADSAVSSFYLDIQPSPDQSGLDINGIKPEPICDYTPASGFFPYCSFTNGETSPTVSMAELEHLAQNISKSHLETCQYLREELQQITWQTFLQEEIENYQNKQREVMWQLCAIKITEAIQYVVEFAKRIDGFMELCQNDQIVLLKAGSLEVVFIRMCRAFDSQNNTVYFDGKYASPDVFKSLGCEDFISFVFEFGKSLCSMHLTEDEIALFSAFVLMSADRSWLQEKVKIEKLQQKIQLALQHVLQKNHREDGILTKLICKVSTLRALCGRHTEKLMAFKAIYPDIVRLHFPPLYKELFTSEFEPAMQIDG
The data set is described as follows: Inverse agonist activity at ROR-alpha (unknown origin) expressed in HEK293 cells by Gal4-luciferase reporter assay. The format is cell-based. (A reporter such as luciferase makes a cellular process visible.)

Data set [11] in a line: Volume of distribution at steady state in CD-1 mouse at 1 mg/kg, iv administered as single dose measured after 24 hrs by LC-MS/MS analysis. Particulars: in vivo, read-out: Vdss. In kind it is ADME, organism-based.
Data set [12] in a line: AUC (0 to last) in CD-1 mouse at 1 mg/kg, iv administered as single dose measured after 24 hrs by LC-MS/MS analysis. The format is ADME, organism-based. More on the design: route intravenous, dose 1 mg/kg, time 24 hrs. Particulars: in vivo.
The nature of data set [13]: Half life in CD-1 mouse at 5 mg/kg, po administered as single dose measured after 24 hrs by LC-MS/MS analysis. Particulars: in vivo. The format is ADME, organism-based.
A short description of data set [14]: AUC (0 to last) in CD-1 mouse at 5 mg/kg, po administered as single dose measured after 24 hrs by LC-MS/MS analysis. In kind it is ADME, organism-based. Set-up: route oral, dose 5 mg/kg, time 24 hrs. Conditions: in vivo.

≈ marks a conversion by molar mass, not a printed value. Bounds are passed on as bounds.

For `CCS(=O)(=O)c1ccc(CC(=O)Nc2cc(Cl)c(-c3ccccc3OC(F)(F)F)c(Cl)c2)cc1`, the solubility kinetic at 2 h, 100 µM in data set [1] came to 1.25 µg/mL (≈ 2.35 µM). What is called IC50 is the concentration needed to halve the response being measured. Take `O=C(NCc1ccc(C(O)CO)cc1)Nc1cc(Cl)c(-c2ccccc2OC(F)(F)F)c(Cl)c1` (configuration not stated): the IC50 in data set [2] stood at 584 nM. As to `Cc1cc(CNC(=O)Nc2cc(Cl)c(-c3ccccc3OC(F)(F)F)c(Cl)c2)ccc1CC(=O)O`, the IC50 in [2] turned out to be 995 nM. Take `CCS(=O)(=O)c1ccc(OCC(=O)Nc2cc(Cl)c(-c3ccccc3OC(F)(F)F)c(Cl)c2)cc1`: the IC50 in data set [2] is 99 nM. Consider `Cc1cc(CC(=O)O)ccc1CNC(=O)Nc1cc(Cl)c(-c2ccccc2OC(F)(F)F)c(Cl)c1`, for which the IC50 in data set [2] was 398 nM.

For the compound `CS(=O)(=O)c1ccc(CNC(=O)Nc2cc(Cl)c(-c3ccccc3OC(F)(F)F)c(Cl)c2)cc1`, the IC50 in [2] stood at 69 nM. Take `CCS(=N)(=O)c1ccc(CNC(=O)Nc2cc(Cl)c(-c3ccccc3OC(F)(F)F)c(Cl)c2)cc1` (configuration not stated): the IC50 in data set [2] came to 200 nM. With `O=C(O)Cc1ccc(CNC(=O)Nc2cc(F)c(-c3ccccc3OC(F)(F)F)c(F)c2)nc1`, the IC50 in data set [2] turned out to be 996 nM. As to `CC(C(=O)O)c1ccc(CNC(=O)Nc2cc(Cl)c(-c3ccccc3OC(F)(F)F)c(Cl)c2)nc1` (configuration not stated), the IC50 in data set [2] is 1780 nM.

Consider `CCS(=O)(=O)c1ccc(CNC(=O)c2cc(Cl)c(-c3ccccc3OC(F)(F)F)c(Cl)c2)cc1`, for which the IC50 in data set [2] worked out at 112 nM. Take `CCS(=O)(=O)c1ccc(COCc2cc(Cl)c(-c3ccccc3OC(F)(F)F)c(Cl)c2)cc1`: the IC50 in [2] worked out at 4410 nM. Take `O=C(O)Cc1ccc(CNC(=O)Nc2ccc(-c3ccccc3)cc2)cc1`: in [2], the IC50 was > 30000 nM. Regarding `Cc1cc(NC(=O)NCc2ccc(CC(=O)O)cn2)cc(C)c1-c1ccccc1OC(F)F`, in [2], the IC50 stood at 345 nM. Take `O=C(NCc1ccc(C(O)C(=O)O)cc1)Nc1cc(Cl)c(-c2ccccc2OC(F)(F)F)c(Cl)c1` (configuration not stated): the IC50 in data set [2] was 278 nM. As a reminder, the Cmax is the peak of the concentration-time curve. By clearance is commonly meant a measure of how efficiently the substance is removed, as volume per time. High values mean efficient removal, low ones inefficient removal. Usually half-life stands for the time in which the quantity being followed falls by half. In general, bioavailability refers to dose-corrected exposure relative to a reference, in per cent. Read a high bioavailability as much systemic uptake. The term Tmax denotes the time from dosing to the highest level. As usually defined, the AUC(0-t) is the area under the concentration-time curve up to a stated or last time point. Higher therefore signals more exposure. Regarding `O=C(O)Cc1ccc(CNC(=O)Nc2cc(Cl)c(-c3ccccc3OC(F)(F)F)c(Cl)c2)cc1`, the Cmax worked out at 1550 ng/mL in data set [3] and 609 ng/mL in data set [5]. The same compound had a clearance in data set [4] of 13.1 mL/min/kg. Moreover, the IC50 in data set [6] and in data set [10] was > 10000 nM throughout. For the same compound, the half-life is 3.04 h in [7] and 3.63 h in [13]. For the same compound, the bioavailability in [8] amounted to 38.1%. Further, the solubility kinetic at 2 h, 100 µM in data set [1] came out at 84 µg/mL (≈ 164 µM). The Tmax in data set [9] came out at 1 h. The Vd in data set [11] worked out at 1.78 L/kg. The AUC(0-t) at 24 h worked out at 1270 ng·h/mL in [12] and 2410 ng·h/mL in [14].

For `O=C(NCc1ccc(C(=O)O)cc1)Nc1cc(Cl)c(-c2ccccc2OC(F)(F)F)c(Cl)c1`, the IC50 in data set [2] was 1100 nM.

For `O=C(NCc1ccc(C(F)C(=O)O)cc1)Nc1cc(Cl)c(-c2ccccc2OC(F)(F)F)c(Cl)c1` (configuration not stated), the IC50 in data set [2] worked out at 124 nM.

On to `CNS(=O)(=O)c1ccc(CNC(=O)Nc2cc(Cl)c(-c3ccccc3OC(F)(F)F)c(Cl)c2)cc1`, for which the IC50 in [2] turned out to be 99.8 nM. Regarding `O=C(O)CCc1ccc(CNC(=O)Nc2cc(Cl)c(-c3ccccc3OC(F)(F)F)c(Cl)c2)cc1`, the IC50 in data set [2] was 841 nM.

Turning to `NS(=O)(=O)c1ccc(CNC(=O)Nc2cc(Cl)c(-c3ccccc3OC(F)(F)F)c(Cl)c2)cc1`, the IC50 in data set [2] is 276 nM. Take `CC(=O)NS(=O)(=O)c1ccc(CNC(=O)Nc2cc(Cl)c(-c3ccccc3OC(F)(F)F)c(Cl)c2)cc1`: in data set [2], the IC50 came out at 138 nM. Take `CC(C(=O)O)c1ccc(CNC(=O)Nc2cc(Cl)c(-c3ccccc3OC(F)(F)F)c(C#N)c2)cc1` (configuration not stated): in [2], the IC50 came out at 334 nM. On to `CC(C(=O)O)c1ccc(CNC(=O)Nc2cc(Cl)c(-c3ccccc3OC(F)(F)F)c(Cl)c2)cc1` (configuration not stated), for which the IC50 in [2] came to 541 nM.

Take `CCS(=O)(=O)c1ccc(CCOc2cc(Cl)c(-c3ccccc3OC(F)(F)F)c(Cl)c2)cc1`: in data set [2], the IC50 came to 426 nM. On the same count and under the same terms, the value for `CCS(=O)(=O)c1ccc(CCNc2cc(Cl)c(-c3ccccc3OC(F)(F)F)c(Cl)c2)cc1` was 21.6 nM.
